Patent US12428405B2, “Chalcone-based chemotherapeutic compound for triple negative breast cancer” (QATAR UNIVERSITY, priority 2019, dated 2025)
“Also recorded” adds a separate entry of the source. Like-named read-outs stand apart in the source and are kept apart here.

Key:
[1] = tested on: Chorioallantoic membrane (CAM) of the chicken embryos; experiment: Chorioallantoic membrane (CAM) angiogenesis assay; type: in vivo; settings: treated at embryonic day 4, read at day 8; 2 μl of 5 mM stock under coverslip
Description: Fertilized white Leghorn chicken embryos (Arab Qatari for Poultry Production, Qatar) were purchased and incubated at 60% humidity at 37° C. in MultiQuip incubator. Ethics approval was obtained from Qatar University-Institutional Bio-safety committee. The embryos were treated in ovo at embryonic day 4 with three of the synthesized chalcones (5, 13 and 14) compared to DMSO treated controls. Briefly, a small cut was made at the top of the shells of the eggs and each treatment was added under a round coverslip at 2 μl of 5 mM stock solutions. Microscopic pictures were taken at embryonic day 8. Embryos treated with compounds 13 and 14 were sacrificed at embryonic day 9 for clinical observations. Quantification of blood vessels was performed manually and the different treatment groups were compared.

MDA-MB-231 [2] = experiment: Soft agar colony formation assay; type: cell-based; settings: for less colonies as compared to untreated: 5 and 10 μM, 21 days post treatment; for colony formation (in words): MDA-MB-231, soft agar
MCF-7 [3] = experiment: Soft agar colony formation assay; type: cell-based; settings: for less colonies as compared to untreated: 5 and 10 μM, 14 days post treatment; for colony formation (in words): MCF-7, soft agar
MCF-7 [4] = experiment: Matrigel invasion assay; type: cell-based; settings: 24 hours; 13 (10 μM), 14 (5 μM)
Description: (§1) Matrigel-coated invasion chamber plates (CORNING, USA) were used to study the invasive property of MDA-MB-231, MDA-MB-468 and MCF-7 cancer cells. Cells were seeded at a concentration of 5×10^4 cells/0.5 ml in each upper chamber well and maintained in RPMI serum free medium. Complete RPMI medium with 10% FBS was added to each base well at 600 μl/well to act as an attractant to the cells in the upper chamber. After 24 hours, cells were fixed using a 3.70% formaldehyde as a fixator for 5 minutes. […] Thereafter, cells were stained using 5% crystal violet dissolved in ethanol and were incubated for 5 minutes followed by several rounds of washing with PBS. Cells were then visualized under the microscope and 4 pictures/well were taken from different zones. ImageJ software was used to quantify the number of invaded cells in each well.

MDA-MB-231 [5] = experiment: Matrigel invasion assay; type: cell-based; settings: 24 hours; 13 (10 μM), 14 (5 μM)
Description: as §1

MDA-MB-468 [6] = experiment: Matrigel invasion assay; type: cell-based; settings: 24 hours; 13 (10 μM), 14 (5 μM)
Description: as §1

MDA-MB-468 [7] = experiment: Soft agar colony formation assay; type: cell-based; settings: for less colonies as compared to untreated: 5 and 10 μM, 14 days post treatment
MCF-7 [8] = experiment: Morphological examination; type: cell-based; settings: 10 μM; 48 hours
Description: (§2) MCF-7, MDA-MB-231, MDA-MB-468 and HNME-E6/E7 cells were seeded in a 6-well plates at a concentration of 200,000-300,000 cells/well and were incubated overnight. After incubation, cells were treated with different compounds.

MDA-MB-231 [9] = experiment: Morphological examination; type: cell-based; settings: 10 μM
Description: as §2

MDA-MB-468 [10] = experiment: Morphological examination; type: cell-based; settings: 10 μM; 24 hours
Description: as §2

MDA-MB-231 [11] = experiment: Migration (wound healing) assay; type: cell-based; settings: for IC50: 24 hours of treatment, 5 concentrations, two independent experiments, read-out: Migratory IC50 MDA-MB-231; for activity at 5 µM: 24 hours post treatment, control = 100, Mean ± SEM (N = 2 × 2), read-out: % migration
Description: MDA-MB-231 cells were seeded in 12-wells plates at a concentration of 500,000 cells/well and were incubated in complete RPMI culture medium until covering the well and reaching around 90-100% confluency. Following, cells were serum starved for 4 hours and a 200 μl pipette tip was used to create the scratch followed by cell washing with PBS twice. […] Microscopic pictures were then taken, and cell migration was quantified based on the wound diameter at 24 hours minus the initial diameter at time zero, as represented by the following equation: % Migration=[…]

MCF-7 [12] = experiment: Cell cycle analysis (flow cytometry); type: cell-based; settings: 48 h; 10 μM of compound 13, 5 μM of compound 14
Description: (§3) The MDA-MB-231, MDA-MB-468 and MCF-7 cell lines were seeded on 6-well plates at a concentration of 200,000 cells per well and were maintained in culture supplemented with 10% fetal bovine serum for 8-10 hours. The same day, media was removed and cells were incubated overnight with serum free media. Second day, cells were treated with the compounds. Adherent and floating cell populations were harvested at 48 hours after treatment with different concentrations of the compounds and counted.
(§4) Afterward, cells were washed with cold PBS once, centrifuged at 4° C. and fixed with 1.5 ml cold 70% ethanol added drop wise while slowly vortexing. Samples were then stored at […] Following fixation, cells were pelleted and washed with ice-cold PBS. Equal aliquots were collected and resuspended in 300 μl of Tali® Cell Cycle Kit and incubated at 37 C. with slow shaking speed for 30 minutes in the dark. Accuri C6 flow cytometer (BD Biosciences, USA) was used to analyze the cells. The FlowJo V10 software was used to process and evaluate the results.

MDA-MB-231 [13] = experiment: Cell cycle analysis (flow cytometry); type: cell-based; settings: 48 hours
Description: as §3, §4

MDA-MB-468 [14] = experiment: Cell cycle analysis (flow cytometry); type: cell-based; settings: 48 hours
Description: as §3, §4

HNME-E6/E7 = experiment: Morphological examination of normal cells; type: cell-based, human; settings: 5 μM; 48 hours
Description: as §2

| Compound | inhibition of blood vessels development vs control [1] | less colonies as compared to untreated (MDA-MB-231 [2]) | colony formation (in words) (MDA-MB-231 [2]) | less colonies as compared to untreated (MCF-7 [3]) | colony formation (in words) (MCF-7 [3]) | reduction of cancer cells invasion vs DMSO control (MCF-7 [4]) | reduction of cancer cells invasion vs DMSO control (MDA-MB-231 [5]) | reduction of cancer cells invasion vs DMSO control (MDA-MB-468 [6]) | less colonies as compared to untreated (MDA-MB-468 [7]) | cell morphology (MCF-7 [8]) | cell morphology (MDA-MB-231 [9]; 24 hours) | cell morphology (MDA-MB-231 [9]; 48 hours) | cell morphology (MDA-MB-468 [10]) | IC50 (MDA-MB-231 [11]; Homo sapiens, MDA-MB-231, 24 h) | activity at 5 µM (MDA-MB-231 [11]; Homo sapiens, MDA-MB-231, 5 μM) | cell cycle arrest (in words) (MCF-7 [12]) | cell morphology of normal cells (HNME-E6/E7) | other results |
| --- | --- | --- | --- | --- | --- | --- | --- | --- | --- | --- | --- | --- | --- | --- | --- | --- | --- | --- |
| COc1cccc(C(=O)/C=C/c2ccc(N(CCCl)CCCl)cc2)c1 [Compound 14, (E)-3-(4-(Bis(2-chloroethyl)amino)phenyl)-1-(3-methoxyphenyl) prop-2-en-1-one] | 60.20±8.47% | ~100% | completely inhibited; also recorded: better effects on MDA-MB-231 as compared to colchicine and paclitaxel | ~100% | completely inhibited; also recorded: better effects on MCF-7 as compared to colchicine | 57.26% | 82.54% | 59.28% | ~100% | induced cell shrinkage | did not induce a significant difference | change in cell shape | obvious change in cell shape | 2.86 ± 0.2 µM | 32.11 ± 0.17% | mainly noticed in the invasive cell lines but not in the noninvasive, MCF-7, cells | induced morphological changes | colony formation (in words) (MDA-MB-468 [7]; MDA-MB-468, soft agar): completely inhibited; IC50 (MDA-MB-231 [11]): 2.86 ± 0.197 µM; inhibition at 5 µM (MDA-MB-231 [11]; Homo sapiens, MDA-MB-231, 5 μM, 24 hours, read-out: inhibition of cell migration): 67.89 ± 0.17%; cells arrested at the G2/M phase (cells percentage) (MDA-MB-231 [13]; 5 μM of compound 14): 47.27±7.869%; cells arrested at the G2/M phase (cells percentage) (MDA-MB-468 [14]; 5 μM of compound 14): 66.45±4.25% |
| CS(=O)(=O)c1ccc(C(=O)/C=C/c2ccc(N(CCCl)CCCl)cc2)cc1 [Compound 13, (E)-3-(4-(Bis(2-chloroethyl)amino)phenyl)-1-(4-(methylsulfonyl)phenyl) prop-2-en-1-one] | 55.6±6.04% | ~100% | better effects on MDA-MB-231 as compared to colchicine and paclitaxel | ~100% | better effects on MCF-7 as compared to colchicine | 45.70% | 79.57% | 48.45% | ~100% | triggered cells to become larger in shape | look more spherical in shape and to lose their mesenchymal fibroblastic property | Mainly single circular cells were obvious | obvious change in cell shape | 5.71 ± 0.57 µM | 59.5 ± 2.75% | mainly noticed in the invasive cell lines but not in the noninvasive, MCF-7, cells | induced morphological changes | cell cycle arrest at the S phase (cells percentage) (MDA-MB-231 [13]; 10 μM of compound 13): 28.7±1.87%; cell cycle arrest at the S phase (cells percentage) (MDA-MB-468 [14]; 10 μM of compound 13): 46.8±5.39% |
